Measurements taken from PubChem BioAssay (NCI).
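Grown in 96-well plates, cells were treated for 48 hours with each compound at five concentrations. Insufficient inhibition: endpoint recorded as highest concentration tested. TGI denotes the concentration required for complete inhibition of growth.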

How the values were obtained:
Experiment in all cases: growth of human tumour cells (NCI), 48 h
[1] = tested on: 786-0 renal
[2] = tested on: K-562 leukemia
[3] = tested on: MDA-MB-231 breast
[4] = tested on: MDA-MB-435
[5] = tested on: MDA-N
[6] = tested on: MOLT-4 leukemia
[7] = tested on: NCI-H226 lung
[8] = tested on: NCI-H23 lung
[9] = tested on: NCI-H522 lung
[10] = tested on: OVCAR-8 ovarian
[11] = tested on: SF-268 CNS
[12] = tested on: SK-MEL-28 melanoma
[13] = tested on: SK-MEL-5 melanoma
[14] = tested on: SK-OV-3 ovarian
[15] = tested on: SN12C renal
[16] = tested on: U251 CNS
[17] = tested on: IGROV1 ovarian
[18] = tested on: SNB-19 CNS
[19] = tested on: RXF 393 renal
[20] = tested on: SK-MEL-2 melanoma

SMILES | TGI [1] [µM] | TGI [2] [µM] | TGI [3] [µM] | TGI [4] [µM] | TGI [5] [µM] | TGI [6] [µM] | TGI [7] [µM] | TGI [8] [µM] | TGI [9] [µM] | TGI [10] [µM] | TGI [11] [µM] | TGI [12] [µM] | TGI [13] [µM] | TGI [14] [µM] | TGI [15] [µM] | TGI [16] [µM] | TGI [17] [µM] | TGI [18] [µM] | TGI [19] [µM] | TGI [20] [µM]
O=c1c2cc(-c3ccccc3)sc2nc2n1N=C(c1ccccc1)CS2 | 38 | > 100 | > 100 | > 100 | > 100 | > 100 | > 100 | > 100 | > 100 | > 100 | > 100 | > 100 | 79.3 | 26.3 | > 100 | 48.4 | – | – | – | –
OCC1OC(n2nc(-c3ccccc3)nc2-c2cnccn2)C(O)C(O)C1O (stereo not given) | > 100 | > 100 | > 100 | > 100 | > 100 | > 100 | – | > 100 | > 100 | > 100 | – | > 100 | > 100 | > 100 | > 100 | > 100 | > 100 | > 100 | – | –
CN(C)C(Cc1cnc[nH]1)C(=O)N1CCCC1C(N)=O (stereo not given) | > 100 | > 100 | > 100 | > 100 | > 100 | > 100 | > 100 | > 100 | > 100 | > 100 | > 100 | > 100 | > 100 | > 100 | > 100 | > 100 | > 100 | > 100 | > 100 | –
NCC(=O)NC1(c2cc3ccccc3s2)CCCCC1 | > 100 | 24.6 | – | > 100 | > 100 | – | 69.5 | > 100 | > 100 | > 100 | > 100 | 39.8 | 33.2 | > 100 | > 100 | – | > 100 | > 100 | > 100 | –
CC(=O)[C@@H]1[C@@H](OC(=O)CCC(C)COC2OC(CO)C(O)C(O)C2O)C[C@H]2[C@@H]3CC=C4C[C@@H](OC5OC(CO)C(OC6OC(C)C(O)C(O)C6O)C(O)C5OC5OC(C)C(O)C(O)C5O)CC[C@]4(C)[C@H]3CC[C@]12C (stereo not given in full) | > 100 | > 100 | > 100 | > 100 | > 100 | > 100 | – | > 100 | 97 | > 100 | > 100 | > 100 | > 100 | > 100 | > 100 | > 100 | – | > 100 | > 100 | > 100
